Results from ChEMBL document CHEMBL1201862, “PubChem BioAssay data set” (2004).
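Following 48 hours of exposure in 96-well plates, responses at five concentrations were used to interpolate endpoints linearly. Abbreviation: GI50, concentration required for 50% inhibition of growth.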 Active and inactive are the calls of the source. Rule as the data show it: active = GI50 up to about 1.1 µM and inactive = higher.

Experiments:
Experiment in all cases: NCI tumour cell line growth inhibition, 48 h
SK-MEL-28 = system: SK-MEL-28
SK-OV-3 = system: SK-OV-3
SNB-78 = system: SNB-78
UO-31 = system: UO-31
U-251 = system: U-251
HOP-62 = system: HOP-62
KM12 = system: KM12
UACC-257 = system: UACC-257
ACHN = system: ACHN
UACC-62 = system: UACC-62
SF-539 = system: SF-539
SF-268 = system: SF-268
K562 = system: K562
M14 = system: M14
HT-29 = system: HT-29
DMS-273 = system: DMS-273
A549 = system: A549
NCI-H460 = system: NCI-H460
CAKI-1 = system: CAKI-1
SNB-75 = system: SNB-75
SNB-19 = system: SNB-19
HL-60 = system: HL-60
HCC 2998 = system: HCC 2998
RXF 393 = system: RXF 393
COLO 205 = system: COLO 205
KM-20L2 = system: KM-20L2
HCT-15 = system: HCT-15
SK-MEL-2 = system: SK-MEL-2
Malme-3M = system: Malme-3M
DMS-114 = system: DMS-114
TK-10 = system: TK-10
LOX IMVI = system: LOX IMVI
SF-295 = system: SF-295
OVCAR-8 = system: OVCAR-8
LXFL 529 = system: LXFL 529
HOP-18 = system: HOP-18
MOLT-4 = system: MOLT-4
NCI-H226 = system: NCI-H226
DLD-1 = system: DLD-1
RPMI-8226 = system: RPMI-8226
SW-620 = system: SW-620
CCRF-CEM = system: CCRF-CEM
XF498 = system: XF498
M19-MEL = system: M19-MEL
786-0 = system: 786-0
NCI-H522 = system: NCI-H522
NCI-H23 = system: NCI-H23
RXF 631 = system: RXF 631
OVCAR-4 = system: OVCAR-4
HCT-116 = system: HCT-116
OVCAR-3 = system: OVCAR-3
A498 = system: A498
EKVX = system: EKVX
SN12C = system: SN12C
SK-MEL-5 = system: SK-MEL-5
IGROV-1 = system: IGROV-1
OVCAR-5 = system: OVCAR-5
HOP-92 = system: HOP-92

Structure (SMILES): CCc1ccccc1NC(=O)/C(=N/O)C(C)=O
- GI50 (SK-MEL-28): > 100 µM (inactive)
- GI50 (SK-OV-3): > 100 µM (inactive)
- GI50 (SNB-78): > 100 µM (inactive)
- GI50 (UO-31): > 100 µM (inactive)
- GI50 (U-251): > 100 µM (inactive)
- GI50 (HOP-62): > 100 µM (inactive)
- GI50 (KM12): > 100 µM (inactive)
- GI50 (UACC-257): > 100 µM (inactive)
- GI50 (ACHN): > 100 µM (inactive)
- GI50 (UACC-62): > 100 µM (inactive)
- GI50 (SF-539): > 100 µM (inactive)
- GI50 (SF-268): > 100 µM (inactive)
- GI50 (K562): > 100 µM (inactive)
- GI50 (M14): > 100 µM (inactive)
- GI50 (HT-29): > 100 µM (inactive)
- GI50 (DMS-273): > 100 µM (inactive)
- GI50 (A549): > 100 µM (inactive)
- GI50 (NCI-H460): > 100 µM (inactive)
- GI50 (CAKI-1): > 100 µM (inactive)
- GI50 (SNB-75): > 100 µM (inactive)
- GI50 (SNB-19): > 100 µM (inactive)
- GI50 (HL-60): > 100 µM (inactive)
- GI50 (HCC 2998): > 100 µM (inactive)
- GI50 (RXF 393): > 100 µM (inactive)
- GI50 (COLO 205): > 100 µM (inactive)
- GI50 (KM-20L2): > 100 µM (inactive)
- GI50 (HCT-15): > 100 µM
- GI50 (SK-MEL-2): > 100 µM (inactive)
- GI50 (Malme-3M): > 100 µM (inactive)
- GI50 (DMS-114): > 100 µM (inactive)
- GI50 (TK-10): > 100 µM (inactive)
- GI50 (LOX IMVI): > 100 µM (inactive)
- GI50 (SF-295): > 100 µM (inactive)
- GI50 (OVCAR-8): > 100 µM (inactive)
- GI50 (LXFL 529): > 100 µM (inactive)
- GI50 (HOP-18): > 100 µM (inactive)
- GI50 (MOLT-4): > 100 µM (inactive)
- GI50 (NCI-H226): 62.1 µM (inactive)
- GI50 (DLD-1): > 100 µM (inactive)
- GI50 (RPMI-8226): > 100 µM (inactive)
- GI50 (SW-620): > 100 µM (inactive)
- GI50 (CCRF-CEM): > 100 µM (inactive)
- GI50 (XF498): > 100 µM (inactive)
- GI50 (M19-MEL): > 100 µM (inactive)
- GI50 (786-0): > 100 µM (inactive)
- GI50 (NCI-H522): > 100 µM (inactive)
- GI50 (NCI-H23): > 100 µM (inactive)
- GI50 (RXF 631): > 100 µM (inactive)
- GI50 (OVCAR-4): > 100 µM (inactive)
- GI50 (HCT-116): > 100 µM (inactive)
- GI50 (OVCAR-3): > 100 µM (inactive)
- GI50 (A498): > 100 µM (inactive)
- GI50 (EKVX): > 100 µM (inactive)
- GI50 (SN12C): 96.8 µM (inactive)
- GI50 (SK-MEL-5): > 100 µM (inactive)
- GI50 (IGROV-1): > 100 µM (inactive)

Structure (SMILES): COc1cc(CCc2ccc(N)cc2)cc(OC)c1OC
- GI50 (SK-MEL-28): 46 µM (inactive)
- GI50 (SK-OV-3): > 91.4 µM (inactive)
- GI50 (SNB-78): 39.1 µM (inactive)
- GI50 (UO-31): > 45.3 µM (inactive)
- GI50 (U-251): > 53.2 µM (inactive)
- GI50 (HOP-62): > 42.7 µM (inactive)
- GI50 (KM12): 18.7 µM (inactive)
- GI50 (UACC-257): > 94.4 µM (inactive)
- GI50 (ACHN): > 100 µM (inactive)
- GI50 (UACC-62): 38.7 µM (inactive)
- GI50 (SF-539): 26.1 µM (inactive)
- GI50 (SF-268): > 69.3 µM (inactive)
- GI50 (K562): 46.1 µM (inactive)
- GI50 (M14): 54.6 µM (inactive)
- GI50 (HT-29): 41.5 µM (inactive)
- GI50 (DMS-273): 37.9 µM (inactive)
- GI50 (A549): 51.6 µM (inactive)
- GI50 (NCI-H460): 55.1 µM (inactive)
- GI50 (CAKI-1): 67.8 µM (inactive)
- GI50 (SNB-75): > 56 µM (inactive)
- GI50 (SNB-19): > 100 µM (inactive)
- GI50 (HL-60): > 48 µM (inactive)
- GI50 (HCC 2998): > 47.8 µM (inactive)
- GI50 (RXF 393): 50.9 µM (inactive)
- GI50 (COLO 205): 18.9 µM (inactive)
- GI50 (KM-20L2): 44.2 µM (inactive)
- GI50 (HCT-15): 43.4 µM
- GI50 (SK-MEL-2): 27.8 µM (inactive)
- GI50 (Malme-3M): 28.2 µM (inactive)
- GI50 (OVCAR-5): > 100 µM (inactive)
- GI50 (DMS-114): 34.3 µM (inactive)
- GI50 (TK-10): > 74.3 µM (inactive)
- GI50 (LOX IMVI): 61 µM (inactive)
- GI50 (HOP-92): 35.4 µM (inactive)
- GI50 (SF-295): 12.2 µM (inactive)
- GI50 (OVCAR-8): > 75.9 µM (inactive)
- GI50 (LXFL 529): 59 µM (inactive)
- GI50 (HOP-18): > 71 µM (inactive)
- GI50 (MOLT-4): 36.9 µM (inactive)
- GI50 (NCI-H226): > 76.2 µM (inactive)
- GI50 (DLD-1): > 100 µM (inactive)
- GI50 (RPMI-8226): 64.6 µM (inactive)
- GI50 (SW-620): 45.5 µM (inactive)
- GI50 (CCRF-CEM): 49.4 µM (inactive)
- GI50 (XF498): 64.6 µM (inactive)
- GI50 (M19-MEL): 55.8 µM (inactive)
- GI50 (786-0): > 92.7 µM (inactive)
- GI50 (NCI-H522): 31.5 µM (inactive)
- GI50 (NCI-H23): 92.3 µM (inactive)
- GI50 (RXF 631): > 58.1 µM (inactive)
- GI50 (OVCAR-4): 63.5 µM (inactive)
- GI50 (HCT-116): 50.9 µM (inactive)
- GI50 (OVCAR-3): 41.1 µM (inactive)
- GI50 (A498): 56.1 µM (inactive)
- GI50 (EKVX): > 66.5 µM (inactive)
- GI50 (SN12C): > 54.8 µM (inactive)
- GI50 (SK-MEL-5): 29.4 µM (inactive)
- GI50 (IGROV-1): > 86.9 µM (inactive)
